In paper PMC11714206, “Massively Parallel Screening of Toll/Interleukin‐1 Receptor (TIR)‐Derived Peptides Reveals Multiple Toll‐Like Receptors (TLRs)‐Targeting Immunomodulatory Peptides” (Advanced Science, 2024):
Several values for one entry are separate records, joined by “and”; a condition that tells them apart may be missing. Equal values may be shown once. Blank lines part the entries; values can stand above or below the sequence they belong to.

Molecular target: T1, MAL^TIR (Homo sapiens, UniProt P58753)
T1 construct: MAL (residues 79–221); 6xHis; made in house; host or cells: E. coli BL21 (DE3)
Test: T‐Surf phage library (P8 and P3) selection against MAL^TIR, four rounds, NGS read counts
Format: binding
Settings: for Population: 4th round of selection against MAL TIR, share of NGS reads; for P3_MAL Rank (after) / P3_MAL Rank (before): P3 library; for P8_MAL Rank (after) / P8_MAL Rank (before): P8 library
In short: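 Library of 190 946 TIR‐derived peptides on P8 or P3 was panned on immobilized TIR domain coated at 5 µg mL^−1, BSA‐blocked, 1 h binding at RT, PBS/0.5% Tween‐20 washes, HCl elution, TG1 amplification. Fourth‐round pools were PCR‐barcoded, sequenced (100 bp paired‐end, Phred ≥30), and peptides ranked by read counts.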

[1] = P8_MAL pool: P8 T-Surf phage library
[2] = selection against MAL, rank by count after grouping
[3] = selection against MAL, rank by count before grouping
[4] = P8_MAL: rank by count after grouping
[5] = P8_MAL: rank by count before grouping
[6] = selection against MAL, rank after grouping
[7] = selection against MAL, rank before grouping
[8] = selection against MAL TIR, rank by count after grouping
[9] = selection against MAL TIR, rank by count before grouping
[10] = P3_MAL: rank by count after grouping
[11] = P3_MAL: rank by count before grouping
[12] = 4R selection against MAL, rank after grouping
[13] = 4R selection against MAL, rank before grouping
[14] = P3_MAL pool: P3 T-Surf phage library

T1 sequence (P58753 79-221): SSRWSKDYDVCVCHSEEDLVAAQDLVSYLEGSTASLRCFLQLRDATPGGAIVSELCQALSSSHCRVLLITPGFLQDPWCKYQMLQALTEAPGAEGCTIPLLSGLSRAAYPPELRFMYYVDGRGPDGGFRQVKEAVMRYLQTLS

Population [1]: 0.00371% and 0.00278%
Sequence: AFFWAQLKSVLGNPTM

P3_MAL Rank (after) [2]: 769
P3_MAL Rank (before) [3]: 2322
Sequence: RFWERPRYLTPSNNHR

P3_MAL Rank (after) [2]: 695
P3_MAL Rank (before) [3]: 3728
Sequence: KSILDTEARIWAGVR

Rank (after) [4]: 137
Rank (before) [5]: 1458
Sequence: YFLHFLLFSRPQTQYI

Rank (after) [4]: 153
Rank (before) [5]: 1256
Sequence: WFYERPVSLILRDTIV

P3_MAL Rank (after) [2]: 735
P3_MAL Rank (before) [3]: 3480
Sequence: NNLFNELVSKNIRTFT

P8_MAL Rank (after) [6]: 501
P8_MAL Rank (before) [7]: 2512
Sequence: SLLYDHLRCWAFVRF

P3_MAL Rank (after) [8]: 193
P3_MAL Rank (before) [9]: 2405
Sequence: RGFLSHLRHLLQAKDP

Rank (after) [10]: 475
Rank (before) [11]: 1552
Sequence: YTALTKSGVHAFRDND

P8_MAL Rank (after) [6]: 567
P8_MAL Rank (before) [7]: 1640
Sequence: AFFWAQLKSTLGETSF

Population [1]: 0.00371%
Sequence: RNFVAYLFQALANIGI

Rank (after) [10]: 430
Rank (before) [11]: 3163
Sequence: SSFREGLWRLPELCKK

P8_MAL Rank (after) [12]: 598
P8_MAL Rank (before) [13]: 1976
Sequence: DFLNWFIALKSTVLET

Rank (after) [10]: 164
Rank (before) [11]: 1739
Sequence: GFLYQAFAREGLQIFM

Population [14]: 0.05%
Rank (after) [10]: 98
Rank (before) [11]: 98
Sequence: RRTFLSHLQHHFASKG

P8_MAL Rank (after) [6]: 492
P8_MAL Rank (before) [7]: 1785
Sequence: AFYWAQLNSVLRDTTM

P3_MAL Rank (after) [2]: 708
P3_MAL Rank (before) [3]: 1810
Sequence: AWFRESLSRRLKGLLT

P8_MAL Rank (after) [8]: 254
P8_MAL Rank (before) [9]: 2246
Sequence: RNLGAYLFQALANKGI

P8_MAL Rank (after) [8]: 267
P8_MAL Rank (before) [9]: 1586
Sequence: AFFCAHLRTVLGKPTM

Rank (after) [10]: 473
Rank (before) [11]: 3418
Sequence: NQWHNALAAAANLLGL

Rank (after) [4]: 385
Rank (before) [5]: 1403
Sequence: WCYERRVSLILRETKV

P3_MAL Rank (after) [12]: 634
P3_MAL Rank (before) [13]: 2753
Sequence: PNLSNKVMNYLMRTQT

P8_MAL Rank (after) [2]: 716
P8_MAL Rank (before) [3]: 1572
Sequence: GLSWGPYEWWMGLYDA

P3_MAL Rank (after) [6]: 518
P3_MAL Rank (before) [7]: 2525
Sequence: RLLKWKEALKQRAL

Rank (after) [4]: 148
Rank (before) [5]: 1160
Sequence: WFYERLFSLILRATKV

P8_MAL Rank (after) [6]: 518
P8_MAL Rank (before) [7]: 1407
Sequence: WSLFTVRSVLYAMSPA

P3_MAL Rank (after) [12]: 594
P3_MAL Rank (before) [13]: 3202
Sequence: SSFSEGLWRRLELSKK

Rank (after) [10]: 471
Rank (before) [11]: 3228
Sequence: RWFWDKLIYALSRNTH

Rank (after) [4]: 477
Rank (before) [5]: 1713
Sequence: AFFWEKLRTVLGRPTM

P8_MAL Rank (after) [2]: 712
P8_MAL Rank (before) [3]: 1114
Sequence: WFFERLVKLILRDTKV

Population [1]: 0.00402% and 0.00371%
Sequence: WLYERLVSLILRDTKV

Rank (after) [10]: 109
Rank (before) [11]: 250
Sequence: RGFLSHLHRYLVQRGV

Rank (after) [4]: 417
Rank (before) [5]: 1934
Sequence: ACFWEQRPTVLGKPPM

Rank (after) [10]: 453
Rank (before) [11]: 2129
Sequence: LELGDPYFWSKLRYAM

P8_MAL Rank (after) [12]: 627
P8_MAL Rank (before) [13]: 1563
Sequence: VFFWAQLKKVLRNPTR

P3_MAL Rank (after) [2]: 726
P3_MAL Rank (before) [3]: 2689
Sequence: PNLRTTVPTYLMRTKT

Rank (after) [10]: 426
Rank (before) [11]: 2762
Sequence: PKLRTKVLKYQMRTKT

P8_MAL Rank (after) [12]: 639
P8_MAL Rank (before) [13]: 1100
Sequence: LFYGRMVSLILRDTNV

Population [14]: 0.00376%
Sequence: PNLRTKVLSYLMRTKT

P8_MAL Rank (after) [6]: 572
P8_MAL Rank (before) [7]: 1498
Sequence: YFLHFLLYDHLRWLGIRAFL

Population [14]: 0.00488%
Sequence: YAFTGHLHRYLAQRGV

Population [1]: 0.0034%
Sequence: AFLYTFPINLTHPTNF

Population [1]: 0.00309%
Sequence: WFYERLVRLILRDTKV

P8_MAL Rank (after) [12]: 658
P8_MAL Rank (before) [13]: 2245
Sequence: RNLVAYQFQALPNKGI

Rank (after) [4]: 436
Rank (before) [5]: 2724
Sequence: KLFQQWIELHLHQLHL

Rank (after) [10]: 467
Rank (before) [11]: 1806
Sequence: AFSNNEYKCVETALMN

P3_MAL Rank (after) [12]: 607
P3_MAL Rank (before) [13]: 2604
Sequence: RNFAGQLAGLTLQNGDEGK

P3_MAL Rank (after) [12]: 658
P3_MAL Rank (before) [13]: 3188
Sequence: SSFREDMWRRLELSQQ

Rank (after) [4]: 406
Rank (before) [5]: 1287
Sequence: WFYERLVSMVLRDTKV

P3_MAL Rank (after) [2]: 761
P3_MAL Rank (before) [3]: 2242
Sequence: LKWGDPRQASKLGYTM

Rank (after) [10]: 412
Rank (before) [11]: 1644
Sequence: VELAQVRKQRDAGEKV

P3_MAL Rank (after) [8]: 271
P3_MAL Rank (before) [9]: 1446
Sequence: YAFTGHPHRSLVQRGV

Rank (after) [4]: 405
Rank (before) [5]: 2222
Sequence: RNFVAYLLQALANKSI
